For one series, the system named is B. subtilis 168. The class given is cell-based, Bacillus subtilis. The note with it: 168, 20 h.
The test system of series [1] is S. aureus USA300. The class given is cell-based, Staphylococcus aureus.
A further series concerns E. coli K12. The class given is cell-based, Escherichia coli. Conditions: K12, 20 h.
The test system of series [2] is S. aureus USA300. The class given is cell-based, Staphylococcus aureus. The note with it: USA300, 20 h.
The next series relates to S. epidermidis 1457. It counts as cell-based, Staphylococcus epidermidis. Conditions: 1457, 20 h.
The test system of the next series is Human HEK293. Kind of series: MTS cytotoxicity assay. The class given is cell-based. The note with it: kidney cells. Background: Formazan colour is commonly taken as a measure of viable cells.
Series [3] has as its system Candida albicans ATCC 10231. The class given is cell-based. Conditions: ATCC 10231, 48 h.
The subject of a further series is C. glabrata ATCC 2001. The class given is cell-based, Candida glabrata. The note with it: ATCC 2001, 48 h.
The subject of another series is Porcine RBCs. The experiment in a line: Hemolytic assay. The class given is cell-based, pig. Conditions: 2% blood cells in PBS, 37°C, one hour, hemoglobin at 545 nm.
Another series has as its system Chicken RBCs. Kind of series: Hemolytic assay. It counts as cell-based. Conditions: 2% blood cells in PBS, 37°C, one hour, hemoglobin at 545 nm.
A further series concerns C. tropicalis ATCC 13803. The class given is cell-based, Candida tropicalis. The note with it: ATCC 13803, 48 h.
Another series concerns Human HeLa (HeLa CCL-2). Kind of series: MTS cytotoxicity assay. It counts as cell-based.
The subject of another series is Human HaCaT. Kind of series: MTS cytotoxicity assay. Conditions: skin keratinocytes. The class given is cell-based.
The next series relates to HeLa CCL-2 cells. It counts as cell-based, human.
In another series the test system is E. coli ATCC 35218. The note with it: cited from earlier work.
The subject of another series is B. megaterium. Conditions: cited from earlier work.
A further series concerns S. aureus ATCC 25923. Conditions: cited from earlier work.
Series [4] concerns E. coli ATCC 25922 and ML-35p strains. The note with it: cited from earlier work.

Each structure is given as a SMILES string. In brackets after ≈: the same amount, converted by molar mass. Square brackets hold non-standard residues; d marks the D form. Peptide text beside a SMILES is read from it. A value given as a limit tells only on which side of the number the result lay.

Turning to `CC[C@H](C)[C@H](NC(=O)[C@H](CCCNC(=N)N)NC(=O)[C@H](CO)NC(=O)[C@H](CC(C)C)NC(=O)[C@H](Cc1c[nH]c2ccccc12)NC(=O)[C@H](Cc1c[nH]c2ccccc12)NC(=O)[C@@H](N)Cc1c[nH]c2ccccc12)C(=O)N[C@@H](Cc1c[nH]c2ccccc12)C(=O)O` [TetraF2W] (H-WWWLSRIW-OH), the “MIC B. subtilis 168” value in the series on B. subtilis 168 was 6.2 µM (≈ 7.64 µg/mL). In addition, the “MBC S. aureus USA300” value in the series with S. aureus USA300 [1] stood at 6.2 µM (≈ 7.64 µg/mL). The “MIC E. coli K12” value against E. coli K12 is above 100 µM. The “MIC S. aureus USA300” value against S. aureus USA300 [2] was 3.1 to 6.2 µM. The “MIC S. epidermidis 1457” value against S. epidermidis 1457 was above 50 µM.

For the molecule `CC[C@H](C)[C@H](NC(=O)[C@H](CCCNC(=N)N)NC(=O)[C@H](CCCCN)NC(=O)[C@H](CC(C)C)NC(=O)[C@H](Cc1c[nH]c2ccccc12)NC(=O)[C@H](Cc1c[nH]c2ccccc12)NC(=O)[C@@H](N)Cc1c[nH]c2ccccc12)C(=O)N[C@@H](Cc1c[nH]c2ccccc12)C(=O)O` [TetraF2W-KR] (H-WWWLKRIW-OH), the “MIC B. subtilis 168” value with B. subtilis 168 stood at 6.2 µM (≈ 7.9 µg/mL). The “MBC S. aureus USA300” value in the series with S. aureus USA300 [1] is 12.5 µM (≈ 15.9 µg/mL). Further, the “MIC E. coli K12” value against E. coli K12 lay in the range of 12.5 to 25 µM. In the series on Human HEK293, the “LC50 Human HEK293” value was 55 µM. For the same molecule, the “MIC Candida albicans” value in series [3] was determined as 12.5 µM (≈ 15.9 µg/mL). The “MIC Candida glabrata” value with C. glabrata ATCC 2001 is 12.5 µM (≈ 15.9 µg/mL). Moreover, the “LC50 (50% hemolytic concentration) Porcine RBCs” value in the series on Porcine RBCs stood at 50 µM. For the same molecule, in the series on Chicken RBCs, the “LC50 (50% hemolytic concentration) Chicken RBCs” value came out at 35 µM. For the same molecule, the “MIC Candida tropicalis” value in the series with C. tropicalis ATCC 13803 is 3.1 to 6.2 µM. Also, in the series on S. aureus USA300 [2], the “MIC S. aureus USA300” value came out at 3.1 µM (≈ 3.95 µg/mL); the “MIC against S. aureus USA300, 150 mM NaCl” value (shortened to “MIC … 150 mM NaCl”) came out at 3.1 µM (≈ 3.95 µg/mL); the “MIC against S. aureus USA300, pH 6.8” value stood at 6.2 μM; the “MIC against S. aureus USA300, Normal medium (pH 7.4)” value (shortened to “MIC … (pH 7.4)”) was determined as 3.1 μM. Besides, the “MIC against S. aureus USA300, pH 8” value with S. aureus USA300 [2] was found to be 3.1 μM. For the same molecule, in the series on Human HeLa (HeLa CCL-2), the “LC50 Human HeLa” value was determined as 100 µM. Moreover, the “LC50 Human HaCaT” value with Human HaCaT is 60 µM. Also, the “MIC S. epidermidis 1457” value against S. epidermidis 1457 came to 12.5 µM (≈ 15.9 µg/mL).

Take `CC[C@@H](C)[C@@H](NC(=O)[C@@H](CCCCN)NC(=O)[C@@H](CCCNC(=N)N)NC(=O)[C@@H](CC(C)C)NC(=O)[C@@H](Cc1c[nH]c2ccccc12)NC(=O)[C@@H](Cc1c[nH]c2ccccc12)NC(=O)[C@H](N)Cc1c[nH]c2ccccc12)C(=O)N[C@H](Cc1c[nH]c2ccccc12)C(=O)O` [TetraF2W-RK-d] (H-[dW][dW][dW][dL][dR][dK][dI][dW]-OH): the “MIC B. subtilis 168” value in the series with B. subtilis 168 stood at 3.1 µM (≈ 3.95 µg/mL). Also, the “MBC S. aureus USA300” value against S. aureus USA300 [1] is 12.5 µM (≈ 15.9 µg/mL). In addition, in the series on E. coli K12, the “MIC E. coli K12” value was 6.2 µM (≈ 7.9 µg/mL). The “MIC S. aureus USA300” value with S. aureus USA300 [2] was determined as 3.1 µM (≈ 3.95 µg/mL). Moreover, the “MIC S. epidermidis 1457” value in the series with S. epidermidis 1457 worked out at 6.2 µM (≈ 7.9 µg/mL).

As to `CC[C@H](C)[C@H](NC(=O)[C@H](CCCNC(=N)N)NC(=O)[C@H](CCCNC(=N)N)NC(=O)[C@H](CC(C)C)NC(=O)[C@H](Cc1c[nH]c2ccccc12)NC(=O)[C@H](Cc1c[nH]c2ccccc12)NC(=O)[C@H](Cc1c[nH]c2ccccc12)NC(=O)[C@@H](N)CS)C(=O)N[C@@H](Cc1c[nH]c2ccccc12)C(=O)O` [CysTetraF2W-RR] (H-CWWWLRRIW-OH), the “cytotoxicity of free peptide to HeLa CCL-2 cells” value in the series with HeLa CCL-2 cells is reported as “nontoxic”.

As for `CC[C@H](C)[C@H](NC(=O)[C@H](CCCCN)NC(=O)[C@H](CCCNC(=N)N)NC(=O)[C@H](CC(C)C)NC(=O)[C@H](Cc1c[nH]c2ccccc12)NC(=O)[C@H](Cc1c[nH]c2ccccc12)NC(=O)[C@@H](N)Cc1c[nH]c2ccccc12)C(=O)N[C@@H](Cc1c[nH]c2ccccc12)C(=O)O` [TetraF2W-RK] (H-WWWLRKIW-OH), the “MIC B. subtilis 168” value against B. subtilis 168 is 6.2 µM (≈ 7.9 µg/mL). For the same molecule, the “MBC S. aureus USA300” value with S. aureus USA300 [1] is 12.5 µM (≈ 15.9 µg/mL). Moreover, the “MIC E. coli K12” value with E. coli K12 is 25 µM (≈ 31.8 µg/mL). Also, in series [3], the “MIC Candida albicans” value is 12.5 µM (≈ 15.9 µg/mL). The “MIC Candida glabrata” value against C. glabrata ATCC 2001 was found to be 12.5 µM (≈ 15.9 µg/mL). The “MIC Candida tropicalis” value in the series on C. tropicalis ATCC 13803 lay within 3.1 to 6.2 µM. For the same molecule, in the series with S. aureus USA300 [2], the “MIC S. aureus USA300” value turned out to be 3.1 µM (≈ 3.95 µg/mL); the “MIC … 150 mM NaCl” value came to 3.1 µM (≈ 3.95 µg/mL); the “MIC against S. aureus USA300, pH 6.8” value was determined as 6.2 μM; the “MIC … (pH 7.4)” value turned out to be 3.1 μM. Besides, the “MIC against S. aureus USA300, pH 8” value in the series on S. aureus USA300 [2] is reported as 3.1 μM. Also, the “MIC S. epidermidis 1457” value against S. epidermidis 1457 is 6.2 µM (≈ 7.9 µg/mL).

As to `CC[C@H](C)[C@H](NC(=O)[C@H](CCCCN)NC(=O)[C@H](CCCCN)NC(=O)[C@H](CC(C)C)NC(=O)[C@H](Cc1c[nH]c2ccccc12)NC(=O)[C@H](Cc1c[nH]c2ccccc12)NC(=O)[C@@H](N)Cc1c[nH]c2ccccc12)C(=O)N[C@@H](Cc1c[nH]c2ccccc12)C(=O)O` [TetraF2W-KK] (H-WWWLKKIW-OH), the “MIC B. subtilis 168” value with B. subtilis 168 was 6.2 µM (≈ 7.72 µg/mL). The “MBC S. aureus USA300” value in the series on S. aureus USA300 [1] is above 25 µM. The “MIC E. coli K12” value in the series with E. coli K12 is 12.5 to 25 µM. The “LC50 Human HEK293” value in the series with Human HEK293 worked out at 50 µM. The “MIC Candida albicans” value in [3] is 6.2 µM (≈ 7.72 µg/mL). Moreover, in the series on C. glabrata ATCC 2001, the “MIC Candida glabrata” value was 6.2 to 12.5 µM. Further, the “LC50 (50% hemolytic concentration) Porcine RBCs” value in the series with Porcine RBCs is 55 µM. In the series with Chicken RBCs, the “LC50 (50% hemolytic concentration) Chicken RBCs” value amounted to 50 µM. In the series with C. tropicalis ATCC 13803, the “MIC Candida tropicalis” value came out at 1.6 µM (≈ 1.99 µg/mL). In the series with S. aureus USA300 [2], the “MIC S. aureus USA300” value fell in the range of 3.1 to 6.2 µM; the “MIC … 150 mM NaCl” value lay within 3.1 to 6.2 µM; the “MIC against S. aureus USA300, pH 6.8” value was determined as 12.5 μM; the “MIC … (pH 7.4)” value is 3.1–6.2 μM. For the same molecule, the “MIC against S. aureus USA300, pH 8” value in the series with S. aureus USA300 [2] stood at 3.1 μM. In the series on Human HeLa (HeLa CCL-2), the “LC50 Human HeLa” value was 70 µM. In addition, the “LC50 Human HaCaT” value in the series on Human HaCaT turned out to be 50 µM. Further, in the series with S. epidermidis 1457, the “MIC S. epidermidis 1457” value came to 6.2 µM (≈ 7.72 µg/mL).

For `CC[C@H](C)[C@H](NC(=O)[C@H](CCCNC(=N)N)NC(=O)[C@H](CO)NC(=O)[C@H](CC(C)C)NC(=O)[C@H](Cc1ccccc1)NC(=O)[C@H](Cc1ccccc1)NC(=O)[C@@H](N)Cc1ccccc1)C(=O)N[C@@H](Cc1ccccc1)C(N)=O` [Temporin-SHf] (H-FFFLSRIF-NH2; N-terminus and C-terminus assumed), in the series on E. coli ATCC 35218, the “MIC E. coli ATCC 35218” value is above 200 µM. Besides, the “MIC B. megaterium” value in the series on B. megaterium was 3 µM (≈ 3.23 µg/mL). Also, the “MIC S. aureus ATCC 25923” value with S. aureus ATCC 25923 is 12.5 µM (≈ 13.4 µg/mL). Also, in series [4], the “MIC E. coli ATCC 25922 and ML-35p strains” value was 25 to 30 µM.
